Where only a bound is given, the exact number is not on record here.

The target in one series is Human recombinant PDE4 (Genbank accession no NM-006203) (Homo sapiens (Human), UniProt Q08499). Description: PDE4 Assay (SPA, cAMP cleavage). As to conditions: human recombinant PDE4, 1 hour incubation, cAMP 1x10-5 M; read-out: IC50 (PDE4). The class given is biochemical. The protocol: Human recombinant PDE4 (Genbank accession no NM_006203) was incubated for 1 hour, with the test compound at concentrations up to 10 μM, with cAMP (1×10^-5M), and with a low amount (0.021 MBq) of radioactively labelled cAMP. At the end of the incubation, the cleavage of the substrate was evaluated by the binding of the AMP product to SPA beads, which generate chemoluminescence when bound to the radioactive tracer. The AMP product inhibited the binding of the radioactive tracer to the beads, and the luminescent signal was competed.
Human recombinant PDE4 (Genbank accession no NM-006203), sequence (Q08499 other isoform, or with tags, fused parts or gaps): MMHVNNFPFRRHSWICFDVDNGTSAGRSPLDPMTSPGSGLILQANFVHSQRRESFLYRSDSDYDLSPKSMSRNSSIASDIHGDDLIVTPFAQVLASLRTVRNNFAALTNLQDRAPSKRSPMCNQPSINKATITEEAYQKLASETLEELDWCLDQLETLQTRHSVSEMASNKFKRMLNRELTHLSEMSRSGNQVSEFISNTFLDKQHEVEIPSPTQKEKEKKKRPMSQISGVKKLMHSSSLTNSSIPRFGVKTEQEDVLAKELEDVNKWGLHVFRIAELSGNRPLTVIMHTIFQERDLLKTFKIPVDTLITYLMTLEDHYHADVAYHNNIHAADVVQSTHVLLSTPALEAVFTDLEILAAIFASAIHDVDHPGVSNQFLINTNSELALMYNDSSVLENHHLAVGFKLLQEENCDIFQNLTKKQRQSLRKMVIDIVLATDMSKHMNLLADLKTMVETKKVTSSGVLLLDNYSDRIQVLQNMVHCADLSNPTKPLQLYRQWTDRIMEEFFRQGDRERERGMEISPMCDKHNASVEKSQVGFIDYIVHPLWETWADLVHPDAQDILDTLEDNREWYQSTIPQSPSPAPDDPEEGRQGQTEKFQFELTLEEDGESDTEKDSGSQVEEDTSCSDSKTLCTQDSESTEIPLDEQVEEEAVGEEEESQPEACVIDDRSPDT
The results were calculated as the molar concentrations resulting in 50% inhibition of the substrate cleavage compared to controls samples, and are expressed as IC50 (M).
On to `O=C(Cc1c(Cl)cncc1Cl)c1ccc(OC(F)F)c2c1OCC1(COC1)CO2` [Compound 101, 2-(3,5-Dichloropyridin-4-yl)-1-{9-difluoromethoxy-spiro[2H-1,5-benzodioxepin-3(4H),3′-oxetane]-6-yl}ethanone], for which the IC50 turned out to be 6 nM.

`O=C(Cc1c(Cl)cncc1Cl)c1ccc(OC(F)F)c2c1OCC1(CCOCC1)CO2` [Compound 103, 2-(3,5-Dichloropyridin-4-yl)-1-{9-difluoromethoxy-spiro[2H-1,5-benzodioxepin-3(4H),4′-tetrahydropyran]-6-yl}ethanone]: the IC50 came to 6 nM.

In the case of `O=C(Cc1c(Cl)c[n+]([O-])cc1Cl)c1ccc(OC(F)F)c2c1OCC1(CCOCC1)CO2` [Compound 104, 2-(3,5-Dichloro-1-oxido-pyridin-4-yl)-1-{9-difluoromethoxy-spiro[2H-1,5-benzodioxepin-3(4H),4′-tetrahydropyran]-6-yl}ethanone], the IC50 was determined as 4 nM.

As for `O=C(Cc1c(Cl)cncc1Cl)c1ccc(OC(F)F)c2c1OC1(CCOCC1)O2` [Compound 105, 2-(3,5-Dichloropyridine-4-yl)-1-(7-difluoromethoxy-2′,3′,5′,6′-tetrahydro-spiro[1,3-benzodioxole-2,4′-(4H)-pyran]-4-yl)ethanone], the IC50 was 7 nM.

`O=C(Cc1c(Cl)c[n+]([O-])cc1Cl)c1ccc(OC(F)F)c2c1OC1(CCOCC1)O2` [Compound 106, 2-(3,5-Dichloro-1-oxido-pyridine-4-yl)-1-(7-difluoromethoxy-2′,3′,5′,6′-tetrahydro-spiro[1,3-benzodioxole-2,4′-(4H)-pyran]-4-yl)ethanone]: the IC50 was 5 nM.

`O=C(Cc1c(Cl)c[n+]([O-])cc1Cl)c1ccc(OC(F)F)c2c1OC1(CCS(=O)(=O)CC1)O2` [Compound 108, 2-(3,5-Dichloro-1-oxido-pyridine-4-yl)-1-(7-difluoromethoxy-2′,3′,5′,6′-tetrahydro-spiro[1,3-benzodioxole-2, 4′-(4H)-thiopyran-1′,1′-dioxide]-4-yl)ethanone]: the IC50 is 16 nM.

With `O=C(Cc1c(Cl)cncc1Cl)c1ccc(OC(F)F)c2c1OC1(CCS(=O)(=O)CC1)O2` [Compound 109, 2-(3,5-Dichloropyridine-4-yl)-1-(7-difluoromethoxy-2′,3′,5′,6′-tetrahydro-spiro[1,3-benzodioxole-2, 4′-(4H)-thiopyran-1′,1′-dioxide]-4-yl)ethanone], the IC50 worked out at 13 nM.

As for `O=C(Nc1c(Cl)cncc1Cl)c1ccc(OC(F)F)c2c1OC1(CCSCC1)O2` [Compound 110, N-(3,5-Dichloro-4-pyridyl)-7-Difluoromethoxy-2′,3′,5′,6′-tetrahydro-spiro[1,3-benzodioxole-2,4′-(4H)-thiopyran]-4-carbamide], the IC50 was found to be 2 nM.

For the molecule `O=C(Nc1c(Cl)c[n+]([O-])cc1Cl)c1ccc(OC(F)F)c2c1OC1(CCS(=O)(=O)CC1)O2` [Compound 111, N-(3,5-dichloro-1-oxo-4-pyridyl)-7-(difluoromethoxy)-1′,1′-dioxo-spiro[1,3-benzodioxole-2,4′-thiane]-4-carboxamide], the IC50 turned out to be 106 nM.

The series is the same for the next values; noted with them: stated in text of example 15; read-out: PDE4 activity.
For `O=C(Cc1c(Cl)cncc1Cl)c1ccc(O)c2c1OC1(CCOCC1)O2` [Compound 403, 2-(3,5-Dichloropyridine-4-yl)-1-(7-hydroxy-2′,3′,5′,6′-tetrahydro-spiro[1,3-benzodioxole-2,4′-(4H)-pyran]-4-yl)ethanone], the IC50 was 5000 nM.

System in a further series: not listed separately
Briefly: In vivo pharmacokinetic analyses in rat. Particulars: serum, PO dosing 5 mg/kg, read-out: Serum Cmax of parent compound. Here is the method:
One rat is dosed orally (5 mg/kg—dissolved in DMSO/H2O/propylenglycol [1:5:4]) and blood samples are taken from the sublingual venous plexus at 30 min, 1 h, 2 h, 4 h and 6 h. Blood samples are taken in BD Vacutainer SST serum separation tubes, serum is isolated by centrifugation, transferred to micronics tubes and subsequently analysed.
Mass spectrometer (API5000 series) parameters are optimised to analyse for the specific compounds and test injections are performed to confirm the validity of the established generic chromatography method. The generic method is based on fast gradient (2.5 min) analysis on C18 column with mobile phases consisting methanol, ammonium acetate, formic acid and water.
Standards are prepared in rat serum to cover the analytical range 0.1 to 300 ng/ml. Standards, blank serum and study samples are applied to 96 deepwell plate and proteins are precipitated by addition of acetonitrile containing internal standard. Samples are analysed on LC-MS/MS usually overnight. Integration and quantification is performed on ration between analyte and internal standard using Analyst software version 1.5. Pharmacokinetic parameters are calculated using a standardised Excel spreadsheet.
Turning to `O=C(Cc1c(Cl)cncc1Cl)c1ccc(OC(F)F)c2c1OC1(CCOCC1)O2` [Compound 105, 2-(3,5-Dichloropyridine-4-yl)-1-(7-difluoromethoxy-2′,3′,5′,6′-tetrahydro-spiro[1,3-benzodioxole-2,4′-(4H)-pyran]-4-yl)ethanone], the Cmax is under 3 ng/mL.

Turning to `O=C(Cc1c(Cl)c[n+]([O-])cc1Cl)c1ccc(OC(F)F)c2c1OC1(CCOCC1)O2` [Compound 106, 2-(3,5-Dichloro-1-oxido-pyridine-4-yl)-1-(7-difluoromethoxy-2′,3′,5′,6′-tetrahydro-spiro[1,3-benzodioxole-2,4′-(4H)-pyran]-4-yl)ethanone], the maximum concentration (Cmax) is 133 ng/mL.
